# Assay results: publication PMC8832557 (Cell Metabolism, 2022)
# Read-outs that look alike come from different tables or passages of the source.
# Experiments:
# [1] = target: T1, ACE2 (angiotensin-I converting enzyme 2) (Homo sapiens, UniProt Q9BYF1); test: SPR; assay type: binding
# [2] = target: T1, ACE2 (angiotensin-I converting enzyme 2); test: SPR; assay type: binding; remark: listed apart in the source
# T1 sequence (Q9BYF1 18-805): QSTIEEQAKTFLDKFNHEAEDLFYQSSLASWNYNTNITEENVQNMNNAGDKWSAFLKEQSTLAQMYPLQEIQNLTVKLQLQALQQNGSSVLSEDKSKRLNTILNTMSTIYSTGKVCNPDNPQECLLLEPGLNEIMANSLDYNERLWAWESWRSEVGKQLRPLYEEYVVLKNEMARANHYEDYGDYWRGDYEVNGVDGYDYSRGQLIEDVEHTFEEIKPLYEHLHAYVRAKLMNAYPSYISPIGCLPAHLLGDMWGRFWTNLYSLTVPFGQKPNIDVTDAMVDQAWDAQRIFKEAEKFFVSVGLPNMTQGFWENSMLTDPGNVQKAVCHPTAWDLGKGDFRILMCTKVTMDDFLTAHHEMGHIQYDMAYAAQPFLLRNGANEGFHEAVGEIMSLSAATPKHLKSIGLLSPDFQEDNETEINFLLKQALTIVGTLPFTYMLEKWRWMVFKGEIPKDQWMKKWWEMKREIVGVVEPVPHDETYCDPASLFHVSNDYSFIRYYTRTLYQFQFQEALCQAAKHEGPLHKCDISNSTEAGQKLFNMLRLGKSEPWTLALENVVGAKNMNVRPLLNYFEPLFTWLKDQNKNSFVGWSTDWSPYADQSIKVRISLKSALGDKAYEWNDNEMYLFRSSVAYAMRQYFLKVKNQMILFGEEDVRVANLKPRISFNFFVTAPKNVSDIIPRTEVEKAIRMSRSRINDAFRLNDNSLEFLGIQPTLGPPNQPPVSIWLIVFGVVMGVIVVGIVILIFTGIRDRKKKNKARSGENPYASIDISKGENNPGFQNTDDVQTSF
SMILES,Kd [1] [µM],Kd [2] [µM]
"N=C(N)c1ccc(/N=N/Nc2ccc(C(=N)N)cc2)cc1 [DIZE, diminazene aceturate]",4.9,
"C[C@]1(OC(=O)/C=C/c2ccccc2)C[C@@H](O)[C@]2(O)C=CO[C@@H](O[C@@H]3O[C@H](CO)[C@@H](O)[C@H](O)[C@H]3O)[C@@H]21 [Har, harpagoside]",,86.1
"Cc1ccc(NC(=O)c2ccc(CN3CCN(C)CC3)cc2)cc1Nc1nccc(-c2cccnc2)n1 [Ima, imatinib]",,12.7
"CC(=O)/N=c1/sc(S(N)(=O)=O)nn1C [Met, methazolamide]",,70
